Experimental data taken from US7238716B2, “Alkanoic acid derivatives process for their production and use thereof” (Takeda Pharmaceuticals Company Limited, priority 2000, dated 2007).

Biological target: T1, PPARγ-RXRα heterodimer (Homo sapiens, UniProt P37231)
T1 construct: expressed in transfected cells; host or cells: CHO-K1
T1 sequence (P37231 1-477 isoform P37231-2): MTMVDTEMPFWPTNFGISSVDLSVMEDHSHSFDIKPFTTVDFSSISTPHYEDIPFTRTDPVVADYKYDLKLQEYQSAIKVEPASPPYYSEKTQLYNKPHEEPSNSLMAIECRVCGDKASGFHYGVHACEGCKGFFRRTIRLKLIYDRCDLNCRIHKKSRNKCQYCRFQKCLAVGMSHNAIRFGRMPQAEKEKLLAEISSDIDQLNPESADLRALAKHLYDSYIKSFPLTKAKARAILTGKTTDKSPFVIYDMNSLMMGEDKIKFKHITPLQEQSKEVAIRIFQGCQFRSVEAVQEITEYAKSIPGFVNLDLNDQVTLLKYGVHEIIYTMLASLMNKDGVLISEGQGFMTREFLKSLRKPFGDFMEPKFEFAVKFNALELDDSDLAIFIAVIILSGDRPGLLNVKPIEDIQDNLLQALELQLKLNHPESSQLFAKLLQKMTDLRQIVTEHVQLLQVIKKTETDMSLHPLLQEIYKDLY
T1 sequence (P19793 1-462 partner): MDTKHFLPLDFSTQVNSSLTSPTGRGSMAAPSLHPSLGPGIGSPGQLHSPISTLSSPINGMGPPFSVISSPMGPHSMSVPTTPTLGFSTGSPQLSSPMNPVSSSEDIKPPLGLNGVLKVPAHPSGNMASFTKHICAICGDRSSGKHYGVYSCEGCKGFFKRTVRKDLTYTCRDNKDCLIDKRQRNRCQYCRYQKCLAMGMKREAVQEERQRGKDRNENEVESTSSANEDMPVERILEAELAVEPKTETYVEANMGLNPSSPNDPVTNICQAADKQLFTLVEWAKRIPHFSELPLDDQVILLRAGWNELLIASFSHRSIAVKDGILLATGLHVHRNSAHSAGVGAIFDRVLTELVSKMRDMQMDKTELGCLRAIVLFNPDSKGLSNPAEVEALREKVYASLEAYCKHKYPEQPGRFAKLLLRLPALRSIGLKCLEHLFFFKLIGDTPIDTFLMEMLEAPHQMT
Assay: PPARγ-RXRα heterodimer ligand activity, luciferase reporter in PPARγ:RXRα:4ERPP/CHO-K1 cells (Test Example 3)
Assay type: cell-based
Conditions: concentration for 50% of the maximum fold induction of luciferase activity; 48 hours, CHO-K1 cells
Protocol: A PPARγ:RXRα:4ERPP/CHO-K1 cells obtained in Reference Example 5 described later were cultured in HAM F12 medium (produced by NISSUI SEIYAKU) containing 10% Fetal bovine serum (produced by Life Technologies, Inc., USA) and then inoculated to a 96-well white plate (produced by Corning Costar Corporation, USA) at the density of 2×10^4 cells/well, and cultured in a CO2 gas incubator at 37° C. overnight.
After washing the 96 well white plate with PBS (Phosphate-buffered saline), 90 μl of HAM F12 medium containing 0.1% fatty acid-free bovine serum albumin (BSA) and 10 μl of test compound were added, which was cultured in a CO2 gas incubator at 37° C. for 48 hours. After removing the medium, 40 μl of PIKKAGENE 7.5 (produced by Wako Pure Chemical Industries, Ltd.) was added. After stirring, the luciferase activity was determined using Lumistar (produced by BMG Labtechnologies GmbH, Germany).
A fold induction was calculated based on the luciferase activity of each test compound by taking the luciferase activity in the test compound non administration group as 1. The values of the test compound, concentration and the fold induction were analyzed using PRISM 2.01 (produced by GraphPad Software Inc. USA) to calculate the EC50 values, the effective concentration of a test compound for 50% of the maximum fold induction.
After a CHO-K1 cell cultured in a 750 ml tissue culture flask (produced by Corning-Costar Corporation, USA) containing HAM F12 medium (produced by NISSUI SEIYAKU) supplemented with 10% Fetal Bovine Serum (produced by Life Technologies, Inc., USA) was scraped by treating with 0.5 g/L trypsin-0.2 g/L EDTA (ethylenediaminetetraacetic acid) (produced by Life Technologies, Inc., USA), the cell was washed with PBS (phosphate buffered saline) (produced by Life Technologies, Inc., USA), centrifuged (1000 rpm, 5 minutes), and then suspended in PBS. Subsequently, a DNA was introduced into the cell under the condition shown below using GENE PULSER (produced by Bio-Rad Laboratories, USA).
Namely, to a cuvette having a 0.4 cm gap, added were 8×10^6 cells and 10 μg of plasmid pVgRXR2-hPPARγ obtained in Reference Example 3 and 10 μg of reporter plasmid pGL3-4ERPP-TK neo obtained in Reference Example 4, which was subjected to electroporation at the voltage of 0.25 kV under the capacitance of 960 μF. Subsequently, the cell was transferred into a HAM F12 medium containing 10% Fetal Bovine. Serum and cultured for 24 hours. Then the cell was scraped again and centrifuged, and then suspended in HAM F12 medium containing 10% Fetal Bovine Serum supplemented with 500 μg/ml of GENETICIN (produced by Life Technologies, Inc., USA) and 250 μg/ml of ZEOCIN (produced by Invitrogen, USA). The suspension was diluted to the density of 10^4 cells/ml, and inoculated to a 96-well plate (produced by Corning Costar Corporation, USA), which was cultured in a CO2 gas incubator at 37° C., whereby obtaining a GENETICIN- and ZEOCIN-resistant transformant.
Subsequently, after the transformant cell line thus obtained was cultured in a 24-well plate (produced by Corning Costar Corporation, USA), selected was a cell line, PPARγ:RXRα:4ERPP/CHO-K1 cell, in which the luciferase was expressed and induced by addition of 10 μM pioglitazone hydrochloride.

Row | SMILES | EC50 [nM]
1 | Cc1oc(-c2ccccc2)nc1COc1ccc(COc2ccc(Cl)cc2CC(=O)O)cc1 [Example 18, 2-[5-chloro-2-[4-[(5-methyl-2-phenyl-4-oxazolyl)methoxy]benzyloxy]phenyl]acetic acid] | 2900
2 | COc1cc(COc2ncccc2CC(=O)O)ccc1OCc1nc(-c2ccccc2)oc1C [Example 91, 2-[2-[3-methoxy-4-[(2-phenyl-5-methyl-4-oxazolyl)methoxy]benzyloxy]-3-pyridyl]acetic acid] | 1.7
3 | Cc1oc(-c2ccccc2)nc1CCc1noc(COc2ccccc2CC(=O)O)n1 [Example 107, 2-[2-[[3-[2-(5-methyl-2-phenyl-4-oxazolyl)ethyl]-1,2,4-oxadiazol-5-yl]methoxy]phenyl]acetic acid] | 87
4 | Cc1oc(-c2ccccc2)nc1COc1cc(COc2cccc(CC(=O)O)c2)ccn1 [Example 62, 2-[3-[2-[(5-methyl-2-phenyl-4-oxazolyl)methoxy]-4-pyridylmethoxy]phenyl]acetic acid] | 20
5 | Cc1oc(-c2ccccc2)nc1CCOc1ccc(COc2ccccc2CC(=O)O)cc1 [Example 58, 2-[2-[4-[2-(5-methyl-2-phenyl-4-oxazolyl)ethoxy]benzyloxy]phenyl]acetic acid] | 120
6 | Cc1oc(-c2ccccc2)nc1COc1ccc(COc2ccccc2CC(=O)O)cc1 [Example 11, 2-[2-[4-[(5-methyl-2-phenyl-4-oxazolyl)methoxy]benzyloxy]phenyl]acetic acid] | 62
7 | COc1cc(COc2ccccc2CC(=O)O)ccc1OCc1nc(-c2ccccc2)oc1C [Example 48, 2-[2-[3-methoxy-4-[(2-phenyl-5-methyl-4-oxazolyl)methoxy]benzyloxy]phenyl]acetic acid] | 18
8 | Cc1oc(-c2ccc3ccccc3c2)nc1COc1ccc(COc2ncccc2CC(=O)O)cc1 [Example 130, 2-[2-[4-[5-methyl-2-(2-naphthyl)-4-oxazolylmethoxy]benzyloxy]-3-pyridyl]acetic acid] | 11
9 | Cc1oc(-c2ccccc2)nc1COc1cc(COc2ncccc2CC(=O)O)on1 [Example 129, 2-[2-[[3-[(5-methyl-2-phenyl-4-oxazolyl)methoxy]-5-isoxazolyl]methoxy]-3-pyridyl]acetic acid] | 59
10 | Cc1ccc(OCc2ccc(OCc3nc(-c4ccccc4)oc3C)cc2)c(CC(=O)O)c1 [Example 15, 2-[5-methyl-2-[4-[(5-methyl-2-phenyl-4-oxazolyl)methoxy]benzyloxy]phenyl]acetic acid] | 200
11 | Cc1oc(-c2ccccc2)nc1COc1ccc(COc2cccnc2CC(=O)O)cc1 [Example 37, 2-[3-[4-[(5-methyl-2-phenyl-4-oxazolyl)methoxy]benzyloxy]-2-pyridyl]acetic acid] | 610
12 | CCOc1ccc(OCc2ccc(OCc3nc(-c4ccccc4)oc3C)cc2)c(CC(=O)O)c1 [Example 26, 2-[5-ethoxy-2-[4-[(5-methyl-2-phenyl-4-oxazolyl)methoxy]benzyloxy]phenyl]acetic acid] | 35
13 | Cc1ccc(CC(=O)O)c(OCc2ccc(OCc3nc(-c4ccccc4)oc3C)cc2)n1 [Example 110, 2-[6-methyl-2-[4-[(5-methyl-2-phenyl-4-oxazolyl)methoxy]benzyloxy]-3-pyridyl]acetic acid] | 42
14 | O=C(O)Cc1ccccc1OCc1ccc(OCc2csc(-c3ccccc3)n2)cc1 [Example 51, 2-[2-[4-[(2-phenyl-4-thiazolyl)methoxy]benzyloxy]phenyl]acetic acid] | 1200
15 | CCOc1ccc(OCc2ccc(OCc3nc(-c4ccccc4)oc3C)cc2)cc1CCC(=O)O [Example 7, 3-[2-ethoxy-5-[4-[(5-methyl-2-phenyl-4-oxazolyl)methoxy]benzyloxy]phenyl]propionic acid] | 36
16 | Cc1oc(-c2ccco2)nc1COc1ccc(COc2ccccc2CC(=O)O)cc1 [Example 50, 2-[2-[4-[[2-(2-furyl)-5-methyl-4-oxazolyl]methoxy]benzyloxy]phenyl]acetic acid] | 180
17 | Cc1oc(-c2ccccc2)nc1COc1cc(COc2ccccc2CC(=O)O)on1 [Example 79, 2-[2-[3-(5-methyl-2-phenyl-4-oxazolylmethoxy)-5-isoxazoly]methoxylphenyl]acetic acid] | 9.2
18 | Cc1oc(-c2ccccc2)nc1COc1cccc(COc2cccc(CC(=O)O)c2)c1 [Example 32, 2-[[3-[3-(5-methyl-2-phenyl-4-oxazolyl)methoxy]benzyloxy]phenyl]acetic acid] | 77
19 | Cc1sc(-c2ccccc2)nc1COc1ccc(COc2ncccc2CC(=O)O)cc1 [Example 93, 2-[2-[4-[(5-methyl-2-phenyl-4-thiazolyl)methoxy]benzyloxy]-3-pyridyl]acetic acid] | 390
20 | Cc1oc(-c2ccco2)nc1COc1ccc(COc2ncccc2CC(=O)O)cc1 [Example 92, 2-[2-[4-[[2-(2-furyl)-5-methyl-4-oxazolyl]methoxy]benzyloxy]-3-pyridyl]acetic acid] | 370
21 | Cc1sc(-c2ccccc2)nc1COc1ccc(COc2ccccc2CC(=O)O)cc1 [Example 52, 2-[2-[4-[(5-methyl-2-phenyl-4-thiazolyl)methoxy]benzyloxy]phenyl]acetic acid] | 230
22 | COc1ccc(OCc2ccc(OCc3nc(-c4ccccc4)oc3C)cc2)c(CC(=O)O)c1 [Example 24, 2-[5-methoxy-2-[4-[(5-methyl-2-phenyl-4-oxazolyl)methoxy]benzyloxy]phenyl]acetic acid] | 160
23 | CCOc1ccc(OCc2ccc(OCc3nc(-c4ccccc4)oc3C)cc2)c(CCC(=O)O)c1 [Example 29, 3-[5-ethoxy-2-[4-[(5-methyl-2-phenyl-4-oxazolyl)methoxy]benzyloxy]phenyl]propionic acid] | 25
24 | Cc1oc(-c2ccccc2)nc1COc1ccc(COc2ncccc2CC(=O)O)cn1 [Example 88, 2-[2-[[6-[(5-methyl-2-phenyl-4-oxazolyl)methoxy]-3-pyridyl]methoxy]-3-pyridyl]acetic acid] | 7.1
25 | Cc1oc(-c2ccccc2)nc1COc1ccc(COc2ncccc2CC(=O)O)cc1 [Example 36, 2-[2-[4-[(5-methyl-2-phenyl-4-oxazolyl)methoxy]benzyloxy]-3-pyridyl]acetic acid] | 33
26 | Cc1oc(-c2ccccc2)nc1COc1ccc(COc2cccc(CC(=O)O)c2)cc1 [Example 1, 2-[3-[4-[(5-methyl-2-phenyl-4-oxazolyl)methoxy]benzyloxy]phenyl]acetic acid] | 290
